Measured values taken from the supplement of paper PMC12137928.
Counter-ions that a name gives are not always drawn.

Columns and labels:
[1] = test system: HCT116; assay: efficacy (maximum % inhibition of viability vs DMSO); higher = more cytotoxic; settings: 72 h
Method in brief: (§1)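 HCT116 cells went into 1536-well plates at 250 per well. CellTiter-Glo luminescence was expressed relative to vehicle (0%) and positive control (-100%) and then pattern-corrected. Both IC50 and maximal efficacy were taken from four-parameter Hill fits.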

[2] = test system: HCT116; settings: 72 h
Method in brief: as §1

Row | Structure (SMILES) | efficacy ([1]; ICRF193 0 nM) [%] | efficacy ([1]; ICRF193 200 nM) [%] | IC50 cell viability ([2]; ICRF193 0 nM) [µM] | IC50 cell viability ([2]; ICRF193 200 nM) [µM]
1 | COc1cccc2c1C(=O)c1c(O)c3c(c(O)c1C2=O)C[C@@](O)(C(=O)CO)C[C@@H]3O[C@H]1C[C@H](N)[C@@H](O)[C@H](C)O1 [Epirubicin hydrochloride] | 91.9 | 73.8 | 0.73 | 1.46
2 | CN(C)[C@@H](CCOc1cccc2ccccc12)c1ccccc1 [Dapoxetine] | 71.4 | 70.9 | 29.1 | 23.1
3 | CN(C)CC/C=C1\c2ccccc2CSc2ccccc21 [Dosulepin hydrochloride] | 67.8 | 69.1 | 20.6 | 29.1
4 | CN1CCc2c(c3ccccc3n2Cc2ccccc2)C1 [MEBHYDROLIN] |  | 41.4 | > 45.8 | 11.6
5 | COc1ccc2cc3[n+](cc2c1OC)CCc1cc2c(cc1-3)OCO2 [Berberine] | 50.1 | 56.1 | 23.1 | 10.3
6 | C[C@]12CC[C@@H]3c4ccc(O)cc4CC[C@H]3[C@@H]1CC[C@@H]2O [Estradiol] | 49.5 | 51.8 | 18.3 | 29.1
7 | O=C(CCCN1CCC(n2c(=S)[nH]c3ccccc32)CC1)c1ccc(F)cc1 [Timiperone] |  | 46.1 | > 45.8 | 18.3
8 | CN1CCc2cccc3c2[C@H]1Cc1ccc(O)c(O)c1-3 [Apomorphine] | 116 | 107 | 20.6 | 29.1
9 | CCOC(=O)O[C@]1(C(=O)COC(=O)CC)CC[C@H]2[C@@H]3CCC4=CC(=O)C=C[C@]4(C)[C@H]3[C@@H](O)C[C@@]21C [PREDNICARBATE] | 108 | 93.8 | 16.4 | 29.1
10 | CCc1c2c(nc3ccc(OC(=O)N4CCC(N5CCCCC5)CC4)cc13)-c1cc3c(c(=O)n1C2)COC(=O)[C@]3(O)CC [Irinotecan] | 79.8 | 102 | 13 | 23.1
11 | C=CCOC(Cn1ccnc1)c1ccc(Cl)cc1Cl (configuration not stated) [Imazalil sulfate] |  | 44.8 | > 45.8 | 29.1
12 | CNCCCN1c2ccccc2CCc2ccccc21 [Desipramine hydrochloride] |  | 47.5 | > 45.8 | 18.3
13 | CNCC[C@H](Oc1cccc2ccccc12)c1cccs1 [Duloxetine hydrochloride] | 93 | 105 | 18.3 | 20.6
14 | C=C1/C(=C\C=C2/CCC[C@]3(C)[C@@H]([C@H](C)CC[C@@H](O)C(C)C)CC[C@@H]23)C[C@@H](O)C[C@@H]1O [Tacalcitol] | 49.2 | 53.2 | 23.1 | 20.6
15 | COc1cc2nc(N3CCN(C(=O)C4COc5ccccc5O4)CC3)nc(N)c2cc1OC (configuration not stated) [Doxazosin mesylate] | 106 | 95.6 | 29.1 | 18.3
16 | C#C[C@]1(OC(C)=O)CC[C@H]2[C@@H]3CCC4=C[C@@H](OC(C)=O)CC[C@@H]4[C@H]3CC[C@@]21C [Ethynodiol diacetate] |  | 47.1 | > 45.8 | 23.1
17 | O=C(O)C1=C(CSc2nnnn2CS(=O)(=O)O)CS[C@@H]2[C@H](NC(=O)[C@H](O)c3ccccc3)C(=O)N12 [CEFONICID SODIUM] |  | 85.2 | > 45.8 | 6.51
18 | CC(=O)c1ccc2c(c1)N(CCCN1CCC(CCO)CC1)c1ccccc1S2 [Piperacetazine] |  | 48.7 | > 45.8 | 20.6
19 | C[C@]12CC[C@H](O)C[C@H]1CC[C@@H]1[C@@H]2CC[C@]2(C)[C@@H](c3ccc(=O)oc3)C[C@H]3O[C@]132 [Bufogenin] | 71.3 | 84.6 | 4.61 | 4.61
20 | O=c1[nH]cc(F)c(=O)[nH]1 [Fluorouracil] | 59.5 | 55.4 | 10.3 | 20.6
21 | CN(C)C(=S)SSC(=S)N(C)C [Thiram] |  | 82.8 | > 45.8 | 29.1
22 | N[C@@H]1[C@H]2CN(c3nc4c(cc3F)c(=O)c(C(=O)O)cn4-c3ccc(F)cc3F)C[C@@H]12 [Trovafloxacin mesylate] | 52.4 | 65.3 | 29.1 | 20.6
23 | CO[C@H]1C[C@@H]2CC[C@@H](C)[C@@](O)(O2)C(=O)C(=O)N2CCCC[C@H]2C(=O)O[C@H]([C@H](C)C[C@@H]2CC[C@@H](OC(=O)C(C)(CO)CO)[C@H](OC)C2)CC(=O)[C@H](C)/C=C(\C)[C@@H](O)[C@@H](OC)C(=O)[C@H](C)C[C@H](C)/C=C/C=C/C=C/1C [Temsirolimus] | 74.5 | 79 | 14.2 | 15.9
24 | CC(=O)O[C@H]1C[C@H](O[C@H]2[C@@H](O)C[C@H](O[C@H]3[C@@H](O)C[C@H](O[C@H]4CC[C@@]5(C)[C@H](CC[C@@H]6[C@@H]5CC[C@]5(C)[C@@H](C7=CC(=O)OC7)CC[C@]65O)C4)O[C@@H]3C)O[C@@H]2C)O[C@H](C)[C@H]1O [Digitoxin 3'''-Acetate] | 75 | 87.8 | 0.231 | 0.116
25 | COc1ccc2cc1Oc1ccc(cc1)C[C@H]1c3c(cc4c(c3Oc3cc5c(cc3OC)CCN(C)[C@@H]5C2)OCO4)CCN1C [Cepharanthine] |  | 41.2 | > 45.8 | 4.61

Row | Structure (SMILES) | efficacy ([1]; ICRF193 0 nM) [%] | efficacy ([1]; ICRF193 200 nM) [%] | IC50 cell viability ([2]; ICRF193 0 nM) [µM] | IC50 cell viability ([2]; ICRF193 200 nM) [µM]
26 | CCCCC(=O)O[C@H]1CC[C@H]2[C@@H]3CCc4cc(O)ccc4[C@H]3CC[C@]12C [Estradiol valerate] |  | 49.3 | > 45.8 | 20.6
27 | CN(C)CCCN1c2ccccc2Sc2ccc(Cl)cc21 [Chlorpromazine] | 117 | 93.2 | 20.6 | 29.1
28 | CNC(=O)c1cc(Oc2ccc(NC(=O)Nc3ccc(Cl)c(C(F)(F)F)c3)cc2)ccn1 [Sorafenib] | 113 | 52.1 | 20.6 | 29.1
29 | CC(=O)[C@H]1CC[C@H]2[C@@H]3C=CC4=CC(=O)CC[C@@]4(C)[C@@H]3CC[C@]12C [Dydrogesterone] |  | 41.7 | > 45.8 | 20.6
30 | CC[C@@H]1/C=C(\C)C[C@H](C)C[C@H](OC)[C@H]2O[C@@](O)(C(=O)C(=O)N3CCCC[C@H]3C(=O)O[C@H](/C(C)=C/[C@@H]3CC[C@H](Cl)[C@H](OC)C3)[C@H](C)[C@@H](O)CC1=O)[C@H](C)C[C@@H]2OC [Pimecrolimus] | 62.4 | 63.4 | 14.6 | 18.3
31 | C=C1c2c(Cl)ccc(O)c2C(=O)C2=C(O)[C@]3(O)C(=O)C(C(N)=O)=C(O)[C@@H](N(C)C)[C@@H]3[C@@H](O)[C@H]12.O=C(O)c1cc(S(=O)(=O)O)ccc1O [Meclocycline sulfosalicylate] | 54.3 | 64 | 20.6 | 29.1
32 | CCCCc1oc2ccccc2c1C(=O)c1cc(I)c(OCCN(CC)CC)c(I)c1 [Amiodarone hydrochloride] | 92.6 | 93 | 20.6 | 16.4
33 | CCCC[C@H](C)C[C@H](O)/C=C/[C@H]1[C@H](O)CC(=O)[C@@H]1CCCC/C=C/C(=O)O [Limaprost] | 81.4 | 77.6 | 20.6 | 16.4
34 | CC(C)COc1ccc(CNC(=O)N(Cc2ccc(F)cc2)C2CCN(C)CC2)cc1 [Pimavanserin] | 96.9 | 97.4 | 18.3 | 18.3
35 | Oc1c(I)cc(Cl)c2cccnc12 [Clioquinol] | 99.1 | 98.1 | 29.1 | 29.1
36 | Cc1cc(O)c2ccccc2c1O [Menadiol] |  | 41.5 | > 45.8 | 20.6
37 | O=C1CSC2(CCN(CCCN3c4ccccc4Sc4ccc(Cl)cc43)CC2)N1 [Spiclomazine hydrochloride] | 81.3 | 82.5 | 20.6 | 23.1
38 | CN1CCC[C@@H]1CCO[C@](C)(c1ccccc1)c1ccc(Cl)cc1 [Clemastine fumarate] | 88 | 114 | 18.3 | 23.1
39 | CC(=O)Oc1cc(C)c(OC(C)=O)c2ccccc12 [Acetomenaphthone] | 107 | 108 | 44.7 | 50.1
40 | Oc1cccc(O)c1 [Resorcinol] |  | 46.8 | > 45.8 | 29.1
41 | C=C(NC(=O)C(=C)NC(=O)c1csc(C2=N[C@@H]3c4csc(n4)[C@H]4NC(=O)c5csc(n5)[C@H]([C@](C)(O)[C@@H](C)O)NC(=O)[C@H]5CSC(=N5)/C(=C/C)NC(=O)[C@H]([C@@H](C)O)NC(=O)c5csc(n5)[C@]3(CC2)NC(=O)[C@H](C)NC(=O)C(=C)NC(=O)[C@H](C)NC(=O)[C@H]([C@@H](C)CC)N[C@@H]2C=Cc3c([C@H](C)O)cc(nc3[C@H]2O)C(=O)O[C@@H]4C)n1)C(N)=O [Thiostrepton] |  | 58.6 | > 45.8 | 5.17
42 | CCc1cc2c(cc1CC)CC(NC[C@H](O)c1ccc(O)c3[nH]c(=O)ccc13)C2 [Indacaterol (maleate)] | 82.9 | 91.6 | 18.3 | 20.6
43 | CC[C@@]1(O)C(=O)OCc2c1cc1n(c2=O)Cc2cc3c([N+](=O)[O-])cccc3nc2-1 [Rubitecan] | 81.2 | 96.5 | 0.447 | 0.0891
44 | COc1cccc2c1C(=O)c1c(O)c3c(c(O)c1C2=O)C[C@@](O)(C(=O)CO)C[C@@H]3O[C@H]1C[C@H](N2CCO[C@H](OC)C2)[C@H](O)[C@H](C)O1 [Nemorubicin] | 68.6 | 76.1 | 0.0259 | 0.0291
45 | C=C1/C(=C\C=C2/CCC[C@]3(C)[C@@H]([C@H](C)/C=C/[C@H](C)C(C)C)CC[C@@H]23)C[C@@H](O)C[C@@H]1O [Doxercalciferol] | 101 | 102 | 29.1 | 29.1
46 | C[C@]12CC[C@H]3[C@@H](CCC4=CC(=O)CC[C@@H]43)[C@@H]1CC[C@@H]2OC(=O)CCc1ccco1 [Nandrolone furylpropionate] | 93.3 | 88 | 29.1 | 29.1
47 | CN1CCN(CCCN2c3ccccc3Sc3ccc(C(F)(F)F)cc32)CC1 [Fluoperazine dihydrochloride] | 92.3 | 94.5 | 18.3 | 18.3
48 | N#CC[C@H](C1CCCC1)n1cc(-c2ncnc3[nH]ccc23)cn1 [Ruxolitinib] | 85.9 | 88.8 | 29.1 | 29.1
49 | CC(=O)S[C@@H]1CC2=CC(=O)CC[C@]2(C)[C@H]2CC[C@@]3(C)[C@@H](CC[C@@]34CCC(=O)O4)[C@H]12 [Spironolactone] | 50.9 | 73.6 | 16.4 | 20.6
